From patent US20240059740A1, “CYCLIC PEPTIDES AND USES THEREOF” (PRE[…] INC., priority 2020, published 2024)
Residues, ends and D or L forms follow the SMILES beside them.

How the values were obtained:
[1] = target: T1, recombinant MMP-2 (Homo sapiens, UniProt P08253); experiment: MMP-2 Inhibitor Screening Assay Kit (colorimetric); assay type: biochemical
T1 construct: purchased ab139446
T1 sequence (P08253 110-660): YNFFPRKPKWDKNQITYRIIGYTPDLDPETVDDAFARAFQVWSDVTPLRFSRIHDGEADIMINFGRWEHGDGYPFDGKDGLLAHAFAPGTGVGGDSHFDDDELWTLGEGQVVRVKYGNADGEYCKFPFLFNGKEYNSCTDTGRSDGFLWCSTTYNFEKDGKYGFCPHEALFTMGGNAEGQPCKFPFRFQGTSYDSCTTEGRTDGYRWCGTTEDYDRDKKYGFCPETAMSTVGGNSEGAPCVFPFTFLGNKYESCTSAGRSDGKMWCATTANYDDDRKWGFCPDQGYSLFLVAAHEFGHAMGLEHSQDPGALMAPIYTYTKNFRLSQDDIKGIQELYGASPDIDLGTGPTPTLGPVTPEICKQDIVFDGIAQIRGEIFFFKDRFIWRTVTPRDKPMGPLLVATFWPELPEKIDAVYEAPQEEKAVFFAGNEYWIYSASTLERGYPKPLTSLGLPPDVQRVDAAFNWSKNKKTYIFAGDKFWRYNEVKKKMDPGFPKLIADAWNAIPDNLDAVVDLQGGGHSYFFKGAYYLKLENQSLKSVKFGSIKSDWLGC
Protocol: MMP-2 is an important target for inhibitor screening due to its involvement in cancer growth, angiogenesis, and metastasis. The MMP-2 screening assay was carried out with a commercially available MMP-2 Inhibitor Screening Assay Kit (Colorimetric, Catalog: ab139446) based on the manufacturers protocol. This assay is based on quantification of recombinant MMP-2 activity using a colorimetric assay (MMP-2 degrades a chromogenic substrate). The assay provides NNGH (N-isobutyl-N-(4-methoxyphenylsulfonyl) glycyl hydroxamic acid), a small molecule inhibitor, as a positive control (NNGH). […] Each determination was run in duplicate.
% Inhibition rate=(Vinhibitor/Vcontrol)×100
Briefly, MMP Substrate and MMP Inhibitor were warmed to room temperature to thaw DMSO. MMP Inhibitor (NNGH), MMP-2 substrate and MMP-2 enzyme were diluted with assay buffer to required concentration. 20 μL of MMP-2 enzyme and MMP-2 inhibitor (peptides, Chlorotoxin and NNGH) was added, then 50 μL of assay buffer was added and the reaction mixture incubated at 37° C. for 1 h. After incubation, 10 μL of MMP Substrate was added to start reaction. The reactions were continuously read at 412 nm in a microplate reader. Data was recorded at 1 min. time intervals for 10 to 20 min. The data as was plotted as optical density (OD) versus time for each sample. The reaction velocity (V) was obtained in OD/min: determine the slope of a line fit to the linear portion of the data plot using an appropriate routine. Then using the equation above the inhibitor % activity remaining was calculated. The control was without inhibitor.

[2] = system: U251 cells; experiment: BME cell invasion assay, U251; assay type: cell-based, human; conditions: 24 h
Protocol: To assess whether the ability of SEQ ID NO.1 to inhibit MMP-2 activity and, to a lesser extent, reduce the production of matrix proteinases and downregulate the expression of EMT markers, was of functional consequence in reducing the invasiveness of the GBM cells, the ability of the peptide was tested at the concentrations of 1, 10 and 100 μM (none of which are toxic to cells) to inhibit invasion of the GBM cells through a basement membrane. This assay, described in more detail below, is an in vitro surrogate for measurement of the in vivo invasion by tumour cells of their environment.
The cell invasion assay employs a simplified Boyden chamber-like design that consists of two chambers separated by a filter (an 8 μm polycarbonate (PC) membrane) coated with basement membrane or different extracellular matrix components. The cell suspension is placed in the top chamber and incubated in the presence of test media containing specific chemo-attractants in the bottom chamber. Cells migrate from the top chamber to the bottom of the filter by degrading the coating over the filter pores. Detection of cell invasion is quantified using Calcein AM. Cell dissociation/Calcein AM solution is placed in the bottom chamber to dissociate the migrating cells from the filter. Calcein AM is internalized by the cells, and intracellular-esterases cleave the aceto-methylester (AM) moiety. Free Calcein fluoresces brightly and is used to quantitate the number of cells that have invaded or migrated by comparison with a standard curve (In Vitro Technologies Pty Ltd, (https://lifescience.invitro.com.au/brands/r-and-d-systems/).
The filter was coated with PathClear® growth factor reduced BME. The selected peptides were applied to the cells in both upper and lower wells to make sure the concentration of peptides were the same and the chemoattractant was serum at a concentration of 2% (for adherent U87 & U251 cells) or growth factor mix required in the medium (for non- adherent, 081024 oncospheres).
Cell invasion was determined using CultureCoat® 96 Well Medium BME Cell Invasion assay. Briefly, the cells were pre-starved 24 h before harvest. Then seeding 25,000 per well of cell in the upper chamber with serum free medium together different concentration of peptide. The bottom chamber also added different concentration of peptides with 2% (V/V) serum for GBM adherent cells or growth factor mix for neurosphere cells as chemoattractant. After 24 h incubation, the invading cells were measured by Calcein AM and calculated based on standard curve.
The results are shown in Table 12, the results are expressed as % inhibition.

CC(C)C[C@@H]1NC(=O)[C@H](C)NC(=O)[C@@H](NC(=O)[C@@H]2CCCN2C(=O)[C@@H](N)CC(C)C)CSSC(C)(C)CNC(=O)CC[C@@H](C(=O)N[C@@H](CCCNC(=N)N)C(N)=O)NC(=O)[C@H](CC(=O)O)NC(=O)[C@H](CC(N)=O)NC1=O [SEQ ID NO: 1, Leu-Pro-c(SSA*-Ala-Leu-Asn-Asp-Glu)-Arg-NH2] (HELM PEPTIDE1{L.P.C.A.L.N.D.E.R.[am]}|CHEM1{[CC(C)(CN[*:2])S[*:1]]}$PEPTIDE1,CHEM1,3:R3-1:R1|PEPTIDE1,CHEM1,8:R3-1:R2$$$V2.0; N-terminus assumed)
remaining activity at 1 µM ([1]; 1 μM, 1 h preincubation at 37° C., lower value = higher inhibitory activity, read-out: % inhibition (Vinhibitor/Vcontrol ×100)): 81% | remaining activity at 10 µM ([1]; 10 μM, lower value = higher inhibitory activity, read-out: % inhibition (Vinhibitor/Vcontrol ×100)): 75.2% | remaining activity at 100 µM ([1]; 100 μM, lower value = higher inhibitory activity, read-out: % inhibition (Vinhibitor/Vcontrol ×100)): 66.9% | inhibition of MMP-2 activity (in words) ([1]; 1 to 100 μM): dose dependent ability to inhibit MMP-2 activity | Invasion Inhibition Index (%) ([2]; 1 μM): 13.2% | Invasion Inhibition Index (%) ([2]; 10 μM): 17.8% | Invasion Inhibition Index (%) ([2]; 100 μM): 26.7%
